Measurements taken from patent US20240226025A1, “POLYNUCLEOTIDES ENCODING METHYLMALONYL-COA MUTASE FOR THE TREATMENT OF METHYLMALONIC ACIDEMIA” (ModernaTX, Inc., priority 2021, published 2024).

System: CD-1 mice
Test: Expression of luciferase induced by lipid nanoparticles in mice (bioluminescence)
Format: in vivo, mouse
Conditions: luciferase mRNA LNP
Procedure: To further assess potency of expression and metabolic stability of lipids of the disclosure, expression of luciferase was measured following administration to rodents of a nanoparticle of the disclosure comprising an mRNA containing luciferase.
Lipid nanoparticles including DSPC as a phospholipid, cholesterol as a structural lipid, Compound I as a PEG lipid, an ionizable amino lipid of Formula (II), and an mRNA encoding luciferase were intravenously administered to CD-1 mice and Sprague Dawley rats. […]

## CCCCCCCCC(CCCCCCCC)OC(=O)CCCCCCCN(CCCCCCCC(=O)OCC(CCCC)CCCCCCC)CCCNc1c(NC)c(=O)c1=O (stereo not shown) [Compound 10]
  Total Whole Body Flux @ 6 h (p/s): 4.6E+09 p/s
